Experiments:
[1] = system: Adult Sprague Dawley rats; assay: Elevated plus maze (EPM); assay type: in vivo, rat; settings: melatonin 50 mg/kg
Protocol: The maze is comprised of two open arms (50×10 cm) and two closed arms (50×10×40 cm) that extend from a common central platform (10×10 cm). The apparatus, made of wood (painted black) was elevated to a height of 80 cm above floor level. The closed arms are located opposite one another. Behavior is recorded over a period of 5 min using a video camera positioned directly above the maze and rated by an observer blind to drug conditions. The major measure of interest is the amount of time spent in the open arms. As an index of general activity and distribution, the total number of entries into both open and closed arms was also recorded. […] In order to increase the sensitivity of this test to anxiolytic activity, tests are carried out under normal room illumination (25 W bulb).

[2] = biological target: high-affinity MLT receptors; settings: read-out: Ki, high-affinity MLT receptors; cited from earlier work
[3] = biological target: T1, cloned human MT1 receptors (Homo sapiens, UniProt P48039); assay: 2-[125I]iodomelatonin competition binding, human MT1 in NIH3T3 cells; settings: calculated from IC50 by Cheng-Prusoff, mean of at least three determinations
T1 construct: expressed in transfected cells
Protocol: (§1) Membranes were incubated for 90 min at 37° C. in binding buffer (Tris/HCl 50 mM, pH 7.4). The final membrane concentration was 5-10 μg of protein per tube. […] The pKi values are the mean of at least three independent determinations performed in duplicate. To define the functional activity of the compounds of Formula (I) at the MT1 and MT2 receptor subtypes, [^35S]GTPγS binding assays in NIH3T3 cells expressing human-cloned MT1 or MT2 receptors were performed. The amount of bound [^35S]GTPγS is proportional to the level of analogue-induced G-protein activation and is related to the intrinsic activity of the compound (i.e. a compound of Formula (I)) under study. […] Nonspecific binding was assessed using non-radiolabeled GTPγS (10 μM). […] Basal stimulation is the amount of [^35S]GTPγS specifically bound in the absence of the compounds of Formula (I) and was taken as 100%. […] All of the measurements were performed in triplicate.

[4] = biological target: T2, cloned human MT2 receptors (Homo sapiens, UniProt P49286); assay: 2-[125I]iodomelatonin competition binding, human MT2 in NIH3T3 cells; settings: human MT2 in NIH3T3 cells; calculated from IC50 by Cheng-Prusoff; mean of at least three determinations
T2 construct: expressed in transfected cells
T2 sequence (P49286 1-362): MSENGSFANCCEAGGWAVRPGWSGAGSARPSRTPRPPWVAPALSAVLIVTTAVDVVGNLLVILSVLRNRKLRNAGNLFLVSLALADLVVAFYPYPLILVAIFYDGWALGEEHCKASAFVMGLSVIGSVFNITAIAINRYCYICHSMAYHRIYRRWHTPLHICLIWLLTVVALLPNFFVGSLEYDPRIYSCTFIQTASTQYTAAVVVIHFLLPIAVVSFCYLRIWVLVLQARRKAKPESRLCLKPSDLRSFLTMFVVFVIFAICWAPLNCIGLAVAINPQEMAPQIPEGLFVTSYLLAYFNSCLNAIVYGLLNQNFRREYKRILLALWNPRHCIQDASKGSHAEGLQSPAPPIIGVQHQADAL
Protocol: as §1

[5] = biological target: T1, cloned human MT1 receptors; assay: [35S]GTPγS binding assay, NIH3T3 cells expressing human MT1; assay type: biochemical; on MT1 Activity: key: A = agonist; PA = partial agonist; ANT = antagonist; IA = Inverse agonist
Protocol: as §1

[6] = biological target: T2, cloned human MT2 receptors; assay: [35S]GTPγS binding assay, NIH3T3 cells expressing human MT2; assay type: biochemical; on MT2 Activity: key: A = agonist; PA = partial agonist; ANT = antagonist; IA = Inverse agonist
Protocol: as §1

[7] = maximal net effect relative to MLT

T1 sequence (P48039 whole entry): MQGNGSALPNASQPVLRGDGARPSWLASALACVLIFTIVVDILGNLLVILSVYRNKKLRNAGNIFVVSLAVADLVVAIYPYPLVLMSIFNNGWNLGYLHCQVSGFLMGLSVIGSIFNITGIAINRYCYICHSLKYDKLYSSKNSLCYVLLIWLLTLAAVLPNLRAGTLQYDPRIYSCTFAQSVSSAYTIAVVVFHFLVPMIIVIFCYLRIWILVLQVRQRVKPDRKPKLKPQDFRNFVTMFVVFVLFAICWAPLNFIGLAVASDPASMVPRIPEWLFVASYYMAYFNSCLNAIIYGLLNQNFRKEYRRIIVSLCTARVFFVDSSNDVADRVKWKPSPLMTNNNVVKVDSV

MT1 pKi [3]	MT2 pKi [4]	MT1 Activity [5]	MT1 IAr ± SEM (relative intrinsic activity) [5, 7]	MT2 Activity [6]	MT2 IAr ± SEM (relative intrinsic activity) [6, 7]	melting point [°C]	Compound	Head Dips [1]	Percentage of time in Closed Arms [1]	Percentage of time in Open Arms [1]	Ki [2] [nM]
–	–	–	–	–	–	–	COc1ccc2[nH]cc(CCNC(C)=O)c2c1 [MLT, N-acetyl-5-methoxytryptamine, reference compound]	7.17 ± 0.89	73.33 ± 3.02 (P = 0.001) %	26.67 ± 3.0 (P = 0.001) %	~0.1
6.11 ± 0.12	7.56 ± 0.10	ANT	0.02 ± 0.01	ANT	0.06 ± 0.03	102 to 104	COc1ccc(N(CCNC(C)=O)c2ccccc2)cc1 [5e, N-{-2-[(4-Methoxyphenyl)-phenylamino]ethyl}acetamide]	–	–	–	–

— US8791163B2 (McGill University, priority 2006, dated 2014)
